The test has as its target T1, Ceramide glucosyltransferase (Homo sapiens, UniProt Q16739).
T1 sequence (Q16739 whole entry): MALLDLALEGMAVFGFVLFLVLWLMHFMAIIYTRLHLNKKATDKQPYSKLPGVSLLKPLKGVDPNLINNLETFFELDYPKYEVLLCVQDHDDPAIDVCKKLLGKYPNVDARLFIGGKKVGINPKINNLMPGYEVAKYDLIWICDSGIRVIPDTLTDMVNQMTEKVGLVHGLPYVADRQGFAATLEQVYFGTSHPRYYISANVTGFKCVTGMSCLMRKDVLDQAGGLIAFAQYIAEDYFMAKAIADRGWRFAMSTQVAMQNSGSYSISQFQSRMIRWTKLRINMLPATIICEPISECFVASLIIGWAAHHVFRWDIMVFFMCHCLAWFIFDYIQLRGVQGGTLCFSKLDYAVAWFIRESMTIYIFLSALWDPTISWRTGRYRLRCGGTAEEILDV
Put plainly: UDP-Glo Glucosylceramide Synthase Biochemical Assay. The method, then:
An aliquot of GCS enzyme (1.5 μg crude golgi preparation, total protein) and titrated test compound were aliquoted to each well and incubated for 30 minutes at room temperature. […] An equivalent volume of substrate mixture was then added to each well. Following a 20 h incubation at room temperature to allow for GCS turnover of substrate, an equal volume of UDP detection reagent (Promega) was added to each well and incubated for an additional 75 minutes at room temperature to simultaneously convert the accumulated UDP product into ATP and generate light in a luciferase reaction. The generated light was detected using a luminometer.

pEC50: −log10 of the molar value.

`COc1ccc(-n2nc(C(=O)N3CCCN(CCF)CC3)c3c2CCOC3)cc1` [US20250171467, Compound 11] showed a pEC50 of 4.92.

One may read the pEC50 as −log10 of the EC50, conventionally taken in molar units. A low value points to a high EC50.

(Values after BindingDB's records for patent US20250171467 (Merck Sharp & Dohme, 2025).)
